Data as given in ChEMBL document CHEMBL4507266, “Data for DCP probe BAY-784” (2021).

Tests used:
[1] = biological target: Ephrin type-A receptor 8 (Homo sapiens) (UniProt P29322); details: Compound concentration 1000.0 nM
[2] = biological target: Serine/threonine-protein kinase 3 (Homo sapiens) (UniProt Q13188); details: Compound concentration 1000.0 nM
[3] = biological target: Beta-1 adrenergic receptor (Homo sapiens) (UniProt P08588); details: Compound concentration 10.0 uM
[4] = biological target: Calcium-dependent protein kinase 1 (Plasmodium falciparum) (UniProt P62344); details: Compound concentration 1000.0 nM
[5] = biological target: Cyclin-dependent kinase-like 2 (Homo sapiens) (UniProt Q92772); details: Compound concentration 1000.0 nM
[6] = biological target: Dual specificity mitogen-activated protein kinase kinase 2 (Homo sapiens) (UniProt P36507); details: Compound concentration 1000.0 nM
[7] = biological target: Mitogen-activated protein kinase kinase kinase 10 (Homo sapiens) (UniProt Q02779); details: Compound concentration 1000.0 nM
[8] = biological target: Calcium/calmodulin-dependent protein kinase type II subunit alpha (Homo sapiens) (UniProt Q9UQM7); details: Compound concentration 1000.0 nM
Chain of Calcium/calmodulin-dependent protein kinase type II subunit alpha (Homo sapiens) (Q9UQM7 whole entry): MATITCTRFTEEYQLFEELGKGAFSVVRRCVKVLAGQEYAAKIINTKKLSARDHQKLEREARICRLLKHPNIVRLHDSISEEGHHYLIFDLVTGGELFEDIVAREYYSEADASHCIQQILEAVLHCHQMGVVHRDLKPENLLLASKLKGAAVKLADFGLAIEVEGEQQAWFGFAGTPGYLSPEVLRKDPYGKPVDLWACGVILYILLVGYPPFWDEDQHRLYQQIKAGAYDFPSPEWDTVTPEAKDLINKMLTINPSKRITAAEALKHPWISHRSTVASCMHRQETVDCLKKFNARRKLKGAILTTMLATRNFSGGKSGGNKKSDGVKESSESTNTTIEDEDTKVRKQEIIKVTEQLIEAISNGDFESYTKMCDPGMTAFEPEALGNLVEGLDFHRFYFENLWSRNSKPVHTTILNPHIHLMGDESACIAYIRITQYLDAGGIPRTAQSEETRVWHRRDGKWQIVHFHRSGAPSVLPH

[9] = biological target: Tyrosine-protein kinase FRK (Homo sapiens) (UniProt P42685); details: Compound concentration 1000.0 nM
Chain of Tyrosine-protein kinase FRK (Homo sapiens) (P42685 whole entry): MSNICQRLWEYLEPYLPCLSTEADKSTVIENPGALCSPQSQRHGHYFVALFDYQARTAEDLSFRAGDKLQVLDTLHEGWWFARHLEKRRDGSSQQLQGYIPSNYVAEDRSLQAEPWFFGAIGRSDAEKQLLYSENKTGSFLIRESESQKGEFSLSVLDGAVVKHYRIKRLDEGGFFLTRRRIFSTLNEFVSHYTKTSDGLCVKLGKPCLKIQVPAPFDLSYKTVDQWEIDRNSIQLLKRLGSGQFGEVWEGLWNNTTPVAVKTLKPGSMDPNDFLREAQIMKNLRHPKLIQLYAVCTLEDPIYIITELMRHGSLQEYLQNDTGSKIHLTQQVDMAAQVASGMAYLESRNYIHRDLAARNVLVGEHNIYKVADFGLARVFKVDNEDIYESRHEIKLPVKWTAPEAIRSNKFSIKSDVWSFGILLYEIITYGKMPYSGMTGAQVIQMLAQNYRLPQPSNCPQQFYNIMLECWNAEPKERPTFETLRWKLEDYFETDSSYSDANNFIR

[10] = biological target: Serine/threonine-protein kinase LATS2 (Homo sapiens) (UniProt Q9NRM7); details: Compound concentration 1000.0 nM
[11] = system: Receptor-type tyrosine-protein kinase FLT3 (Homo sapiens), P36888 [UNDEFINED MUTATION]; details: Compound concentration 1000.0 nM
[12] = biological target: Dual specificity tyrosine-phosphorylation-regulated kinase 2 (Homo sapiens) (UniProt Q92630); details: Compound concentration 1000.0 nM
[13] = system: Mast/stem cell growth factor receptor Kit (Homo sapiens), P10721 [D816V]; details: Compound concentration 1000.0 nM
[14] = system: Epidermal growth factor receptor (Homo sapiens), P00533 [G719S]; details: Compound concentration 1000.0 nM
[15] = biological target: Ankyrin repeat and protein kinase domain-containing protein 1 (Homo sapiens) (UniProt Q8NFD2); details: Compound concentration 1000.0 nM
[16] = biological target: Uncharacterized serine/threonine-protein kinase SBK3 (Homo sapiens) (UniProt P0C264); details: Compound concentration 1000.0 nM
[17] = biological target: Mitogen-activated protein kinase 10 (Homo sapiens) (UniProt P53779); details: Compound concentration 1000.0 nM
[18] = biological target: Mitogen-activated protein kinase kinase kinase 1 (Homo sapiens) (UniProt Q13233); details: Compound concentration 1000.0 nM
[19] = biological target: Interleukin-1 receptor-associated kinase 1 (Homo sapiens) (UniProt P51617); details: Compound concentration 1000.0 nM
[20] = biological target: Cyclin-dependent kinase 19 (Homo sapiens) (UniProt Q9BWU1); details: Compound concentration 1000.0 nM
[21] = biological target: Serine/threonine-protein kinase WNK1 (Homo sapiens) (UniProt Q9H4A3); details: Compound concentration 1000.0 nM
Chain of Serine/threonine-protein kinase WNK1 (Homo sapiens) (Q9H4A3 whole entry, looked up): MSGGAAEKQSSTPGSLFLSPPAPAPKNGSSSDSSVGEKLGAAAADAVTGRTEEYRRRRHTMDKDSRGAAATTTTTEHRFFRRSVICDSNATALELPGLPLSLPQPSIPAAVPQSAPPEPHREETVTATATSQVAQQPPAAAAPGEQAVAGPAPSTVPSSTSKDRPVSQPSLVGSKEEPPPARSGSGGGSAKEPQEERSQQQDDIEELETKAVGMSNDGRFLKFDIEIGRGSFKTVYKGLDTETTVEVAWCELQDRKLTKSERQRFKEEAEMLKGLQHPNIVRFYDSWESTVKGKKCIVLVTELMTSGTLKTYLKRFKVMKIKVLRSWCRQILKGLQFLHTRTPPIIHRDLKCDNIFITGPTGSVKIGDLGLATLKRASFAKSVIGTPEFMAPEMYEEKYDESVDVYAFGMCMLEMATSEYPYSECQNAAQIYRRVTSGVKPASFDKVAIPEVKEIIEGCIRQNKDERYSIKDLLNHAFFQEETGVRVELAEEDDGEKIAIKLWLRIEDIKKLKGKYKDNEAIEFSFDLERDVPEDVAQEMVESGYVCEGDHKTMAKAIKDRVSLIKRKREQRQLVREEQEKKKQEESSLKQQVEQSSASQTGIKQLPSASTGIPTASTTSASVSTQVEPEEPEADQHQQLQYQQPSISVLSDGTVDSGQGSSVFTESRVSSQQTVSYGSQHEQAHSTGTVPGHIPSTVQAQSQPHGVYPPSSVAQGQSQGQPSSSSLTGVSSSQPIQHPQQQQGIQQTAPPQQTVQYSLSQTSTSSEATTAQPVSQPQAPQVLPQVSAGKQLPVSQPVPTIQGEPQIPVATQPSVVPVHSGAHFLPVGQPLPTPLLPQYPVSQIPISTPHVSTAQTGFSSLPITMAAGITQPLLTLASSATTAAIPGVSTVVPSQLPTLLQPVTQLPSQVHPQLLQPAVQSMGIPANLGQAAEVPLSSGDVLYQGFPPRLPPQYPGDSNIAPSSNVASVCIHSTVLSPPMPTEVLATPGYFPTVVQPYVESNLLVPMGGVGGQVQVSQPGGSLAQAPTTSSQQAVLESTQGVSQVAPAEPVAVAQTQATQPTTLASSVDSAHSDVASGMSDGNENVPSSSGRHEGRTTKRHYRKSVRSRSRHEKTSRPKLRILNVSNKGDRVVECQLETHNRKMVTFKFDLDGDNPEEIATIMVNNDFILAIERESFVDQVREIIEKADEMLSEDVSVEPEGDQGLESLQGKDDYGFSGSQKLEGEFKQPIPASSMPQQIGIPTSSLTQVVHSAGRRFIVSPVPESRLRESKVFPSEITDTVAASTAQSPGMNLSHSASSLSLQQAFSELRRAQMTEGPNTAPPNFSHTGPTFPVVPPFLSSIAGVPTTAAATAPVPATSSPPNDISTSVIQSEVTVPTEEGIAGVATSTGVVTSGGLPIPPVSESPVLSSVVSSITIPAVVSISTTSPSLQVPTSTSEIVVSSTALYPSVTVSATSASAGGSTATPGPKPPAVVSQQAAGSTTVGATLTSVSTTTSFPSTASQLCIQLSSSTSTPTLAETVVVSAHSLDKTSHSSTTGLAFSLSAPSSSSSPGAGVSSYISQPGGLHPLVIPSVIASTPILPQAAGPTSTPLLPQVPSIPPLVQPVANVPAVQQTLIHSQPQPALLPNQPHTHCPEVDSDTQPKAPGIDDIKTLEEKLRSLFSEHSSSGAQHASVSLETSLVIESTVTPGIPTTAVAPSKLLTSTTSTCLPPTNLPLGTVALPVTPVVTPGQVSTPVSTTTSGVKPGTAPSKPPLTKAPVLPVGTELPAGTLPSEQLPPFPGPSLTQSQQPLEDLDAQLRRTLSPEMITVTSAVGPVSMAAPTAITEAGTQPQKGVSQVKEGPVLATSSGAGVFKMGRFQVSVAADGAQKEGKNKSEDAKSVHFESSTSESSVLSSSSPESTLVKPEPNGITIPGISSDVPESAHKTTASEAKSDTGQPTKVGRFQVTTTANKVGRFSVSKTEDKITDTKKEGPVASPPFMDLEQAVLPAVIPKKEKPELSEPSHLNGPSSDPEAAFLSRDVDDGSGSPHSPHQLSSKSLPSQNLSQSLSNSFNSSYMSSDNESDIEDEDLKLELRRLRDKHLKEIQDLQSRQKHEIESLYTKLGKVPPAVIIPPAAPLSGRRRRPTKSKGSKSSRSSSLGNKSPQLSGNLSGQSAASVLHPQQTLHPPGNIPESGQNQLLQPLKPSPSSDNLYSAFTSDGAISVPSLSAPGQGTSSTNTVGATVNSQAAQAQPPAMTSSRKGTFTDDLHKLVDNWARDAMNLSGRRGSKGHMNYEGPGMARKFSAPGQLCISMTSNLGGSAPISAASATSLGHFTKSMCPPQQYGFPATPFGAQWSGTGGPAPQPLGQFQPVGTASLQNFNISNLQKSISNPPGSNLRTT

[22] = biological target: Cyclin-dependent kinase-like 1 (Homo sapiens) (UniProt Q00532); details: Compound concentration 1000.0 nM
Chain of Cyclin-dependent kinase-like 1 (Homo sapiens) (Q00532 whole entry, canonical isoform): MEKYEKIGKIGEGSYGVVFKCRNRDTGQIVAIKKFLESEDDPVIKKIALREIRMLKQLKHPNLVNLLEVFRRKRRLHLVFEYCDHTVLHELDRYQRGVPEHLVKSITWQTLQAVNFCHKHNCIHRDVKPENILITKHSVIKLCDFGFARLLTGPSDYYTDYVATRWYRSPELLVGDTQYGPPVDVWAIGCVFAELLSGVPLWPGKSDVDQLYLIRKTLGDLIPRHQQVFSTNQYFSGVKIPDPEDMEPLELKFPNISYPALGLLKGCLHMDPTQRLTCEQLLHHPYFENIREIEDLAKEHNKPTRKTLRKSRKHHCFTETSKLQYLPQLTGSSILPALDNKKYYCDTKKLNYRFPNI

[23] = biological target: Phosphatidylinositol 4,5-bisphosphate 3-kinase catalytic subunit gamma isoform (Homo sapiens) (UniProt P48736); details: Compound concentration 1000.0 nM
[24] = biological target: Serine/threonine-protein kinase 17B (Homo sapiens) (UniProt O94768); details: Compound concentration 1000.0 nM
[25] = biological target: BDNF/NT-3 growth factors receptor (Homo sapiens) (UniProt Q16620); details: Compound concentration 1000.0 nM
[26] = biological target: Receptor-interacting serine/threonine-protein kinase 4 (Homo sapiens) (UniProt P57078); details: Compound concentration 1000.0 nM
[27] = system: Leucine-rich repeat serine/threonine-protein kinase 2 (Homo sapiens), Q5S007 [G2019S]; details: Compound concentration 1000.0 nM
[28] = biological target: SRSF protein kinase 3 (Homo sapiens) (UniProt Q9UPE1); details: Compound concentration 1000.0 nM
[29] = biological target: Serine/threonine-protein kinase MRCK gamma (Homo sapiens) (UniProt Q6DT37); details: Compound concentration 1000.0 nM
[30] = biological target: Wee1-like protein kinase (Homo sapiens) (UniProt P30291); details: Compound concentration 1000.0 nM
[31] = biological target: Serine/threonine-protein kinase Chk1 (Homo sapiens) (UniProt O14757); details: Compound concentration 1000.0 nM
[32] = system: Epidermal growth factor receptor (Homo sapiens), P00533 [UNDEFINED MUTATION]; details: Compound concentration 1000.0 nM
[33] = biological target: RAF proto-oncogene serine/threonine-protein kinase (Homo sapiens) (UniProt P04049); details: Compound concentration 1000.0 nM
[34] = biological target: Ephrin type-A receptor 7 (Homo sapiens) (UniProt Q15375); details: Compound concentration 1000.0 nM
[35] = biological target: Epidermal growth factor receptor (Homo sapiens) (UniProt P00533); details: Compound concentration 1000.0 nM
[36] = biological target: Ribosomal protein S6 kinase alpha-6 (Homo sapiens) (UniProt Q9UK32); details: Compound concentration 1000.0 nM
[37] = biological target: Serine/threonine-protein kinase TNNI3K (Homo sapiens) (UniProt Q59H18); details: Compound concentration 1000.0 nM
[38] = biological target: Ephrin type-B receptor 2 (Homo sapiens) (UniProt P29323); details: Compound concentration 1000.0 nM
[39] = biological target: Insulin-like growth factor 1 receptor (Homo sapiens) (UniProt P08069); details: Compound concentration 1000.0 nM
Chain of Insulin-like growth factor 1 receptor (Homo sapiens) (P08069 31-736 limits assumed): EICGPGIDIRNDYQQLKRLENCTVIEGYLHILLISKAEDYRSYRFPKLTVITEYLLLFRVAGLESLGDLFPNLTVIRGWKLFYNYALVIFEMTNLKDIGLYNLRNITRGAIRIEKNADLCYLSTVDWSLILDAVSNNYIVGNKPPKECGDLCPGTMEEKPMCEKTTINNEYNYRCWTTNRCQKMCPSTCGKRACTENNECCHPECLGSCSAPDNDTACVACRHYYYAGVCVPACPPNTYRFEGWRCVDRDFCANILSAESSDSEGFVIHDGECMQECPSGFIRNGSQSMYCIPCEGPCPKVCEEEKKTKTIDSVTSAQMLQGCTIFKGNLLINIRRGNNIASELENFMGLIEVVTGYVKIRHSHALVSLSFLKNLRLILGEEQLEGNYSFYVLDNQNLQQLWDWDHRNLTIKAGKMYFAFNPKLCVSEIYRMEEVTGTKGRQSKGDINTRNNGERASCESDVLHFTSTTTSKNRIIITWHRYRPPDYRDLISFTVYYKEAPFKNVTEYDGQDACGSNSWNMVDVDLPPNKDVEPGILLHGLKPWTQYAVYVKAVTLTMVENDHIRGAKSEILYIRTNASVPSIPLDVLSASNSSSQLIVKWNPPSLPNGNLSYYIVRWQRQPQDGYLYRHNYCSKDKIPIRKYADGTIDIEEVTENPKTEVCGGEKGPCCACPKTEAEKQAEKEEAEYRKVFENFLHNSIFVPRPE
Chain of Insulin-like growth factor 1 receptor (Homo sapiens) (P08069 741-1367 limits assumed): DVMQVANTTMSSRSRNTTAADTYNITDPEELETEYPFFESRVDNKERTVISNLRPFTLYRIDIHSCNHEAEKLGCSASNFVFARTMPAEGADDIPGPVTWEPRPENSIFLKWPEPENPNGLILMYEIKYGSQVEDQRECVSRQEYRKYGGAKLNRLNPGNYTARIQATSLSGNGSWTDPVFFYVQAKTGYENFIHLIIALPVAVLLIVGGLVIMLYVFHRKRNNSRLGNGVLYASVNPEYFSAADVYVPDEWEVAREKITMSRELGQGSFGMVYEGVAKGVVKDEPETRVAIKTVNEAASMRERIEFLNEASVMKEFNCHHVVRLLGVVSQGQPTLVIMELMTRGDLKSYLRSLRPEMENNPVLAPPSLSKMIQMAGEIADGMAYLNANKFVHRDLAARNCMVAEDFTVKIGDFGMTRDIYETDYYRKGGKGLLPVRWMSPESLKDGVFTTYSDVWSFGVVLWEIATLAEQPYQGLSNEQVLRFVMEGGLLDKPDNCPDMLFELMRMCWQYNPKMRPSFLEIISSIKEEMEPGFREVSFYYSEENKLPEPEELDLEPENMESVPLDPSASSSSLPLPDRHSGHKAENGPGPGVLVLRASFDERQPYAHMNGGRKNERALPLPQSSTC

[40] = biological target: Cyclin-dependent kinase 2 (Homo sapiens) (UniProt P24941); details: Compound concentration 1000.0 nM
[41] = biological target: Tyrosine-protein kinase Yes (Homo sapiens) (UniProt P07947); details: Compound concentration 1000.0 nM
[42] = biological target: Mast/stem cell growth factor receptor Kit (Homo sapiens) (UniProt P10721); details: Compound concentration 1000.0 nM
[43] = biological target: MAP kinase-interacting serine/threonine-protein kinase 1 (Homo sapiens) (UniProt Q9BUB5); details: Compound concentration 1000.0 nM
[44] = biological target: Tyrosine-protein kinase JAK3 (Homo sapiens) (UniProt P52333); details: Compound concentration 1000.0 nM
[45] = biological target: Tyrosine-protein kinase SYK (Homo sapiens) (UniProt P43405); details: Compound concentration 1000.0 nM

O=C(NCc1ncc(C(F)(F)F)cc1Cl)c1ccc2c(c1)C1(CCS(=O)(=O)CC1)[C@@H](C1CC1)N2S(=O)(=O)c1ccc(F)cc1 [BAY-786]
inactive: residual activity [1] 100% | residual activity [2] 87% | inhibition [3] -1.82% | residual activity [4] 100% | residual activity [5] 100% | residual activity [6] 78% | residual activity [7] 100% | residual activity [8] 90% | residual activity [9] 99% | residual activity [10] 99% | residual activity [11] 67% | residual activity [12] 90% | residual activity [13] 89% | residual activity [14] 86% | residual activity [15] 76% | residual activity [16] 100% | residual activity [17] 73% | residual activity [18] 68% | residual activity [19] 77% | residual activity [20] 100% | residual activity [21] 79% | residual activity [22] 100% | residual activity [23] 95% | residual activity [24] 87% | residual activity [25] 71% | residual activity [26] 72% | residual activity [27] 100% | residual activity [28] 100% | residual activity [29] 93% | residual activity [30] 100% | residual activity [31] 100% | residual activity [32] 96% | residual activity [33] 100% | residual activity [34] 100% | residual activity [35] 100% | residual activity [36] 84% | residual activity [37] 100% | residual activity [38] 100% | residual activity [39] 88% | residual activity [40] 100% | residual activity [41] 93% | residual activity [42] 82% | residual activity [43] 78% | residual activity [44] 93% | residual activity [45] 100%

O=C(NCc1ncc(C(F)(F)F)cc1Cl)c1ccc2c(c1)C1(CCS(=O)(=O)CC1)[C@H](C1CC1)N2S(=O)(=O)c1ccc(F)cc1 [BAY-784]
inactive: residual activity [1] 97% | residual activity [2] 100% | inhibition [3] -0.08% | residual activity [4] 85% | residual activity [5] 100% | residual activity [6] 88% | residual activity [7] 100% | residual activity [8] 94% | residual activity [9] 100% | residual activity [10] 100% | residual activity [11] 81% | residual activity [12] 95% | residual activity [13] 100% | residual activity [14] 92% | residual activity [15] 89% | residual activity [16] 100% | residual activity [17] 88% | residual activity [18] 63% | residual activity [19] 82% | residual activity [20] 100% | residual activity [21] 90% | residual activity [22] 90% | residual activity [23] 82% | residual activity [24] 85% | residual activity [25] 60% | residual activity [26] 93% | residual activity [27] 100% | residual activity [28] 100% | residual activity [29] 100% | residual activity [30] 82% | residual activity [31] 100% | residual activity [32] 97% | residual activity [33] 100% | residual activity [34] 100% | residual activity [35] 95% | residual activity [36] 78% | residual activity [37] 100% | residual activity [38] 100% | residual activity [39] 100% | residual activity [40] 85% | residual activity [41] 90% | residual activity [42] 76% | residual activity [43] 74% | residual activity [44] 79% | residual activity [45] 100%
